For 9 compounds, Ki results are on record in patent publication US9738655B2, “Tetrahydroisoquinolines containing substituted azoles as factor XIa inhibitors” (BRISTOL-MYERS SQUIBB COMPANY, priority 2013, dated 2017).

pKi: −log10 of the molar value. Where a name gives a salt, the structure may show the parent alone.

Experiment [1] addresses purified human plasma kallikrein (Homo sapiens (Human), UniProt P03952). Description: Plasma kallikrein enzyme inhibition assay (chromogenic substrate S-2302). The format is biochemical.
Method: The effectiveness of compounds of the present invention as inhibitors of the coagulation Factors XIa, VIIa, IXa, Xa, XIIa, plasma kallikrein or thrombin, can be determined using a relevant purified serine protease, respectively, and an appropriate synthetic substrate. The rate of hydrolysis of the chromogenic or fluorogenic substrate by the relevant serine protease was measured both in the absence and presence of compounds of the present invention. […] A decrease in the rate of absorbance or fluorescence change in the presence of inhibitor is indicative of enzyme inhibition. […] The results of this assay are expressed as the inhibitory constant, Ki.
Values of Ki were determined by allowing the protease to react with the substrate in the presence of the inhibitor.
The following relationships were used to calculate Ki values: (Vmax*S)/(Km+S); (vo−vs)/vs=I/(Ki(1+S/Km)) for a competitive inhibitor with one binding site; or vs/vo=A+((B−A)/1+((IC50/(I)n))); and Ki−IC50/((1+S/Km) for a competitive inhibitor where:
Experiment [2] has as its target purified human Factor XIa (Homo sapiens (Human), UniProt P03951). Description: Factor XIa enzyme inhibition assay (chromogenic substrate S-2366). The conditions noted are these: read-out: Factor XIa Ki; measured at 25° C.
Setting [3] is: measured at 25° C. (no asterisk).

purified human plasma kallikrein, sequence (P03952 391-638): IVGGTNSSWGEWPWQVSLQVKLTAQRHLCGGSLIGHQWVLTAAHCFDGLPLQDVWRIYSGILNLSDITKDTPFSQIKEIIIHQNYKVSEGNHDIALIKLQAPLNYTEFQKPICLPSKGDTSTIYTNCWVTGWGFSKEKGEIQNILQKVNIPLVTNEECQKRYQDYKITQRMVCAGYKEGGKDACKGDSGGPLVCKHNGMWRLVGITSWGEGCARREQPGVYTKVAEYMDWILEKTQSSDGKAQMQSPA
purified human plasma kallikrein, sequence (P03952 20-390 partner): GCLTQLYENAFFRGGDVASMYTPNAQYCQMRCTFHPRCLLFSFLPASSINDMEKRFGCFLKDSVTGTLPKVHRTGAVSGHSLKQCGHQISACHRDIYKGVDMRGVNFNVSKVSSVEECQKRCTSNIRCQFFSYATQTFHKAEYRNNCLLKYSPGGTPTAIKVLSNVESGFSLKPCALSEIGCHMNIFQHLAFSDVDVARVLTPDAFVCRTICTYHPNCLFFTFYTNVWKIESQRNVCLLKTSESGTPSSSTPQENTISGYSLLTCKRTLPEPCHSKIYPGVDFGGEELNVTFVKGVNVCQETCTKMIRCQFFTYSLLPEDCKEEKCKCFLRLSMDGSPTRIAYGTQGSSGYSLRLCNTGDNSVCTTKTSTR
purified human Factor XIa, sequence (P03951 388-625): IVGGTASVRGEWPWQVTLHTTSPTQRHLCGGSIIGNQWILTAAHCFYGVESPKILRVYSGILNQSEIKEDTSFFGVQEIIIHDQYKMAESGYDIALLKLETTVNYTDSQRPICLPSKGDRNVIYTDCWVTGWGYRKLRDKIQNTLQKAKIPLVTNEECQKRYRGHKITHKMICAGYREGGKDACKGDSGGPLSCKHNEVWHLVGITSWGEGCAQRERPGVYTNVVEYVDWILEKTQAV
purified human Factor XIa, sequence (P03951 19-387 partner): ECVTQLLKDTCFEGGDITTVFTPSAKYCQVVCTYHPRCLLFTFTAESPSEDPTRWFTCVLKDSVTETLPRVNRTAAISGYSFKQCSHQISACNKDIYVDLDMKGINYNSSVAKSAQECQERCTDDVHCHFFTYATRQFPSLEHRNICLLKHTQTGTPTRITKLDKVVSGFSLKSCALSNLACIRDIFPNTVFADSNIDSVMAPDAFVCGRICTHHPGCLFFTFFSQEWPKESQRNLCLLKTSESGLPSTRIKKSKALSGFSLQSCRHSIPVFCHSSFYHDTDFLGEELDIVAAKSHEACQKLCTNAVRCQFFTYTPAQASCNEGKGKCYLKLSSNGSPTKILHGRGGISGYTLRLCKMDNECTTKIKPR

`O=C(O)c1ccc(NC(=O)[C@H]2c3cccc(-c4cncnc4)c3CCN2C(=O)c2cn(-c3cccc(Cl)c3F)nn2)cc1` [Example 13, (R)-4-(2-(1-(3-Chloro-2-fluorophenyl)-1H-1,2,3-triazole-4-carbonyl)-5-(pyrimidin-5-yl)-1,2,3,4-tetrahydroisoquinoline-1-carboxamido)benzoic acid]: the pKi in experiment [1] (setting [3]) was 6.37; in experiment [2], 7.92.

As to `O=C(O)c1ccc(NC(=O)[C@@H]2c3cccc(-c4cncnc4)c3CCN2C(=O)c2cn(-c3cccc(Cl)c3F)nn2)cc1` [Example 14, (S)-4-(2-(1-(3-Chloro-2-fluorophenyl)-1H-1,2,3-triazole-4-carbonyl)-5-(pyrimidin-5-yl)-1,2,3,4-tetrahydroisoquinoline-1-carboxamido)benzoic acid], the pKi in experiment [1] (setting [3]) is 8.20; in experiment [2] it was > 8.30.

On to `N#Cc1ccc(-c2cccc3c2CCN(C(=O)c2cn(-c4cccc(Cl)c4F)nn2)[C@H]3C(=O)Nc2ccc(C(=O)O)cc2)cn1` [Example 15, (R)-4-(2-(1-(3-Chloro-2-fluorophenyl)-1H-1,2,3-triazole-4-carbonyl)-5-(6-cyanopyridin-3-yl)-1,2,3,4-tetrahydroisoquinoline-1-carboxamido)benzoic acid, TFA salt], for which the results for the pKi in experiment [1] (setting [3]) and in experiment [2] were 6.66 and 8.04, respectively.

As to `N#Cc1ccc(-c2cccc3c2CCN(C(=O)c2cn(-c4cccc(Cl)c4F)nn2)[C@@H]3C(=O)Nc2ccc(C(=O)O)cc2)cn1` [Example 16, (S)-4-(2-(1-(3-Chloro-2-fluorophenyl)-1H-1,2,3-triazole-4-carbonyl)-5-(6-cyanopyridin-3-yl)-1,2,3,4-tetrahydroisoquinoline-1-carboxamido)benzoic acid, TFA salt], the negative logarithm of the Ki (pKi) was 8.34 in experiment [1] (setting [3]) and > 8.30 in experiment [2].

For the compound `COC(=O)c1ccc(NC(=O)[C@H]2c3cccc(-c4cncnc4)c3CCN2C(=O)c2cn(-c3cccc(Cl)c3F)nn2)cc1` [Example 25, (R)-Methyl 4-(2-(1-(3-chloro-2-fluorophenyl)-1H-1,2,3-triazole-4-carbonyl)-5-(pyrimidin-5-yl)-1,2,3,4-tetrahydroisoquinoline-1-carboxamido)benzoate], the pKi in experiment [1] (measured at 37° C. (*)) was < 5.36; in experiment [2], 5.45.

In the case of `COC(=O)c1ccc(NC(=O)[C@@H]2c3cccc(-c4cncnc4)c3CCN2C(=O)c2cn(-c3cccc(Cl)c3F)nn2)cc1` [Example 26, (S)-Methyl 4-(2-(1-(3-chloro-2-fluorophenyl)-1H-1,2,3-triazole-4-carbonyl)-5-(pyrimidin-5-yl)-1,2,3,4-tetrahydroisoquinoline-1-carboxamido)benzoate], the pKi in experiment [1] (measured at 37° C. (*)) was 7.21; in experiment [2], 8.15.

Take `CNC(=O)c1ccc(-c2cccc3c2CCN(C(=O)c2cn(-c4cccc(Cl)c4F)nn2)[C@@H]3C(=O)Nc2ccc(C(=O)OC)cc2)cn1` [Example 27, (S)-Methyl 4-(2-(1-(3-chloro-2-fluorophenyl)-1H-1,2,3-triazole-4-carbonyl)-5-(6-(methylcarbamoyl)pyridin-3-yl)-1,2,3,4-tetrahydroisoquinoline-1-carboxamido)benzoate, TFA salt]: the negative logarithm of the Ki (pKi) was 7.33 in experiment [1] (measured at 37° C. (*)) and > 8.30 in experiment [2].

Take `COC(=O)c1ccc(NC(=O)[C@@H]2c3cccc(-c4cncnc4)c3CCN2C(=O)[C@H]2CC(c3cccc(Cl)c3F)=NO2)cc1` [Example 28, Methyl 4-((S)-2-((R)-3-(3-chloro-2-fluorophenyl)-4,5-dihydroisoxazole-5-carbonyl)-5-(pyrimidin-5-yl)-1,2,3,4-tetrahydroisoquinoline-1-carboxamido)benzoate]: the values for the pKi in experiment [1] (measured at 37° C. (*)) and in experiment [2] were 7.25 and > 8.30, respectively.

`COC(=O)c1ccc(NC(=O)[C@H]2c3cccc(-c4cncnc4)c3CCN2C(=O)[C@H]2CC(c3cccc(Cl)c3F)=NO2)cc1` [Example 29, Methyl 4-((R)-2-((R)-3-(3-chloro-2-fluorophenyl)-4,5-dihydroisoxazole-5-carbonyl)-5-(pyrimidin-5-yl)-1,2,3,4-tetrahydroisoquinoline-1-carboxamido)benzoate]: the pKi is 5.92 in experiment [1] (measured at 37° C. (*)) and 7.23 in experiment [2].

For orientation: pKi means the Ki on a negative log10 scale, so that one unit is a factor of ten.
